From ChEMBL document CHEMBL1123022, “S-(nitrocarbobenzoxy)glutathiones: potent competitive inhibitors of mammalian glyoxalase II” (J Med Chem, 1985)

What was measured:
[1] = molecular target: T1, Lactoylglutathione lyase (Rattus norvegicus) (UniProt Q6P7Q4); test: […] inhibitory activity against rat liver glyoxalase I
T1 sequence (whole entry): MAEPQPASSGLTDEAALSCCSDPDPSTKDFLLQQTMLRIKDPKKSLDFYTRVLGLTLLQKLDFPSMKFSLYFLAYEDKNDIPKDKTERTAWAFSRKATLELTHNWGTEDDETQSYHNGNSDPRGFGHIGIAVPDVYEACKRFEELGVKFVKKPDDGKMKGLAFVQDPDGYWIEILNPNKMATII

[2] = molecular target: Hydroxyacylglutathione hydrolase, mitochondrial (Rattus norvegicus, UniProt O35952); test: Binding affinity towards rat liver glyoxalase II
[3] = molecular target: Hydroxyacylglutathione hydrolase, mitochondrial (Rattus norvegicus) (UniProt O35952); test: […] inhibitory activity against rat liver glyoxalase II

Compound | [I] 0.5 [1] [µM] | Ki [2] [µM] | [I] 0.5 [3] [µM]
NC(CCC(=O)NC(CSC(=O)OCc1ccc([N+](=O)[O-])cc1)C(=O)NCC(=O)O)C(=O)O (centres undefined) | 925 | 6.5 | 12
NC(CCC(=O)NC(CSC(=O)OCc1cccc([N+](=O)[O-])c1)C(=O)NCC(=O)O)C(=O)O (centres undefined) |  | 9 | 15
NC(CCC(=O)NC(CSC(=O)OCc1ccccc1)C(=O)NCC(=O)O)C(=O)O (centres undefined) |  | 65 | 165
NC(CCC(=O)NC(CSC(=O)OCc1ccccc1[N+](=O)[O-])C(=O)NCC(=O)O)C(=O)O (centres undefined) |  | 15 | 20
